Laboratory results reported in patent publication US20240382494A1, “THERAPEUTIC COMPOUNDS” (priority 2023, published 2024).

How the values were obtained:
[1] = Cytotoxicity assay in Vero E6 cells (neutral red uptake); format: cell-based; settings: African green monkey; Vero E6 cells, 2 days at 37° C., neutral red uptake; read-out: Vero CC50
Procedure: Briefly, 80.000 cells/ml of the tested cell lines were dispensed into 96-well cell culture plates at 100 μl per well Twenty-four hours later, the growth medium was removed and washed with 150 μl of PBS buffer. Two hundred microliters of fresh serum-free medium containing serial diluted compounds was added to each well. After incubating for 2 days at 37° C., the medium was removed and replaced with 100 μl of DMEM medium containing neutral red (40 μg/ml) and incubated for 2 to 4 hours at 37° C. The amount of neutral red taken up was determined by measuring the absorbance at 540 nm using a Multiskan FC Microplate Photometer (Thermo Fisher Scientific) The CC50 values were calculated from best-fit dose-response curves with variable slope in Prism 8.

SARS-CoV-2 PLpro = SARS-CoV-2 PLpro (Severe acute respiratory syndrome coronavirus 2, UniProt P0DTD1); test: FRET-based PLpro enzymatic assay; format: biochemical; settings: 200 nM PLpro, 10 μM FRET substrate, 30 min preincubation at 30° C.; read-out: IC50
Procedure: The SARS-CoV-2 PL^pro enzymatic assays were carried out as follows. The assay was assembled in 96-well plates with 100 μl of 200 nM PL^Pro protein in PL^Pro reaction buffer [50 mM Hepes (pH 7.5), 0.01% Triton X-100, and 5 mM DTT]. Then, 1 μl of testing compound at various concentrations was added to each well and incubated at 30° C. for 30 minutes. The enzymatic reaction was initiated by adding 1 μl of 1 mM FRET substrate (the final substrate concentration is 10 μM). The reaction was monitored in a Cytation 5 image reader with filters for excitation at 360/40 nm and emission at 460/40 nm at 30° C. for 1 hour. The initial velocity of the enzymatic reaction with and without testing compounds was calculated by linear regression for the first 15 minutes of the kinetic progress curve. The IC50 values were calculated by plotting the initial velocity against various concentrations of testing compounds with a dose-response function in Prism 8 software.

Compound | CC50 at 2 days [1] [µM] | IC50 (SARS-CoV-2 PLpro) [nM]
Cc1ccc(OCCN(C)C)cc1C(=O)N[C@H](C)c1cc(-c2cccc3[nH]ncc23)nc2ccccc12 [Example 50, (R)—N-(1-(2-(1H-indazol-4-yl)quinolin-4-yl)ethyl)-5-(2-(dimethylamino)ethoxy)-2-methylbenzamide] | 59.5 ± 25.4 | < 500
Cc1ccc(OCCN(C)C)cc1C(=O)N[C@H](C)c1cc(-c2ccc(CN3CCCC3)s2)nc2ccccc12 [Example 51, (R)-5-(2-(dimethylamino)ethoxy)-2-methyl-N-(1-(2-(5-(pyrrolidin-1-ylmethyl)thiophen-2-yl)quinolin-4-yl)ethyl)benzamide] | 27.1 ± 14 | < 500
Cc1ccc(N2CCN(C)CC2)cc1C(=O)N[C@H](C)c1cc(-c2ccco2)nc2ccccc12 [Example 74, (R)—N-(1-(2-(furan-2-yl)quinolin-4-yl)ethyl)-2-methyl-5-(4-methylpiperazin-1-yl)benzamide] | 19.5 ± 1.13 | < 500
Cc1ccc(OCCN(C)C)cc1C(=O)N[C@H](C)c1cc(-c2ccn[nH]2)nc2ccccc12 [Example 15, (R)—N-(1-(2-(1H-pyrazol-5-yl)quinolin-4-yl)ethyl)-5-(2-(dimethylamino)ethoxy)-2-methylbenzamide] | 63.2 ± 9.51 | < 500
COc1cccc(-c2cc([C@@H](C)NC(=O)c3cc(OCCN(C)C)ccc3C)c3ccccc3n2)c1 [Example 67, (R)-5-(2-(dimethylamino)ethoxy)-N-(1-(2-(3-methoxyphenyl)-quinolin-4-yl)ethyl)-2-methylbenzamide] | 17.2 ± 3.25 | < 500
Cc1ccc(NC2(C)CN(C)C2)cc1C(=O)N[C@H](C)c1cc(-c2cnn(C)c2)nc2ccccc12 [Example 94, (R)-5-((1,3-dimethylazetidin-3-yl)amino)-2-methyl-N-(1-(2-(1-methyl-1H-pyrazol-4-yl)quinolin-4-yl)ethyl)benzamide] | 154 | 1000 to 5000
Cc1ccc(OCCN(C)C)cc1C(=O)N[C@@H](C)c1cc(-c2ccco2)nc2ccccc12 [Example 17, (S)-5-(2-(dimethylamino)ethoxy)-N-(1-(2-(furan-2-yl)quinolin-4-yl)ethyl)-2-methylbenzamide] | – | < 500
Cc1ccc(N2CCC(N(C)C)CC2)cc1C(=O)N[C@H](C)c1cc(-c2cnn(C)c2)nc2ccccc12 [Example 87, (R)-5-(4-(dimethylamino)piperidin-1-yl)-2-methyl-N-(1-(2-(1-methyl-1H-pyrazol-4-yl)quinolin-4-yl)ethyl)benzamide] | 73.8 ± 5.88 | 1000 to 5000
Cc1ccc(OCCN(C)C)cc1C(=O)N[C@@H](C)c1cc(-c2ccnn2C)nc2ccccc12 [Example 21, (S)-5-(2-(dimethylamino)ethoxy)-2-methyl-N-(1-(2-(1-methyl-1H-pyrazol-5-yl)quinolin-4-yl)ethyl)benzamide] | 64.7 ± 8.94 | 500 to 1000
Cc1ccc(N2C[C@H]3CN(C)C[C@H]3C2)cc1C(=O)NC1(c2cc(-c3cnn(C)c3)nc3ccccc23)CC1 [Example 113, 2-methyl-N-(1-(2-(1-methyl-1H-pyrazol-4-yl)quinolin-4-yl)cyclopropyl)-5-((3aR,6aS)-5-methylhexahydropyrrolo[3,4-c]pyrrol-2(1H)-yl)benzamide] | 56.1 | –
CCn1ccc(-c2cc([C@@H](C)NC(=O)c3cc(OC[C@@H]4CCN4C)ccc3C)c3ccccc3n2)n1 [Example 105, N—((R)-1-(2-(1-ethyl-1H-pyrazol-3-yl)quinolin-4-yl)ethyl)-2-methyl-5-(((S)-1-methyl-azetidin-2-yl)methoxy)benzamide] | – | < 500
COc1ncc(-c2cc([C@@H](C)NC(=O)c3cc(OCCN(C)C)ccc3C)c3ccccc3n2)cn1 [Example 62, (R)-5-(2-(dimethylamino)ethoxy)-N-(1-(2-(2-methoxy-pyrimidin-5-yl)quinolin-4-yl)ethyl)-2-methylbenzamide] | – | > 5000
Cc1ccc(OCCN(C)C)cc1C(=O)N[C@H](C)c1cc(-n2ccnc2)nc2ccccc12 [Example 46, (R)—N-(1-(2-(1H-imidazol-1-yl)quinolin-4-yl)ethyl)-5-(2-(dimethylamino)ethoxy)-2-methylbenzamide] | – | < 500
Cc1ccc(OCCN(C)C)cc1C(=O)N[C@H](C)c1cc(-c2cn[nH]c2)nc2ccccc12 [Example 23, (R)—N-(1-(2-(1H-pyrazol-4-yl)quinolin-4-yl)ethyl)-5-(2-(dimethylamino)ethoxy)-2-methylbenzamide] | – | < 500
Cc1ccc(OC[C@H]2CCCN2C)cc1C(=O)N[C@H](C)c1cc(-c2cnn(C)c2)nc2ccccc12 [Example 83, 2-methyl-N—((R)-1-(2-(1-methyl-1H-pyrazol-4-yl)quinolin-4-yl)ethyl)-5-(((R)-1-methylpyrrolidin-2-yl)methoxy)benzamide] | – | < 500
Cc1ccc(N2CCN(C)[C@H](C)C2)cc1C(=O)N[C@H](C)c1cc(-c2cnn(C)c2)nc2ccccc12 [Example 79, 5-((R)-3,4-dimethylpiperazin-1-yl)-2-methyl-N—((R)-1-(2-(1-methyl-1H-pyrazol-4-yl)quinolin-4-yl)ethyl)benzamide] | – | < 500
Cc1ccc(OCCN(C)C)cc1C(=O)N[C@H](C)c1cc(-c2cnn(C)c2)nc2ccccc12 [Example 7, (R)-5-(2-(dimethylamino)ethoxy)-2-methyl-N-(1-(2-(1-methyl-1H-pyrazol-4-yl)quinolin-4-yl)ethyl)benzamide] | – | < 500
Cc1ccc(OCCN(C)C)cc1C(=O)N[C@H](C)c1cc(-c2ccc(CN3CCOCC3)o2)nc2ccccc12 [Example 72, (R)-5-(2-(dimethylamino)ethoxy)-2-methyl-N-(1-(2-(5-(morpholinomethyl)furan-2-yl)quinolin-4-yl)ethyl)benzamide] | – | < 500
Cc1ccc(N2C[C@H]3CN(C)C[C@H]3C2)cc1C(=O)N[C@H](C)c1cc(-c2cnn(C)c2)nc2ccccc12 [Example 81, 2-methyl-N—((R)-1-(2-(1-methyl-1H-pyrazol-4-yl)quinolin-4-yl)ethyl)-5-((3aR,6aS)-5-methylhexahydropyrrolo[3,4-c]pyrrol-2(1H)-yl)benzamide] | – | < 500
Cc1ccc(N2CCN(C)CC2)cc1C(=O)NC1(c2cc(-c3cnn(C)c3)nc3ccccc23)CC1 [Example 111, 2-methyl-N-(1-(2-(1-methyl-1H-pyrazol-4-yl)quinolin-4-yl)cyclopropyl)-5-(4-methylpiperazin-1-yl)benzamide] | > 150 | –
Cc1ccc(OC[C@@H]2CCN2C)cc1C(=O)N[C@H](C)c1cc(-c2cnn(C)c2)nc2ccccc12 [Example 75, 2-methyl-N—((R)-1-(2-(1-methyl-1H-pyrazol-4-yl)quinolin-4-yl)ethyl)-5-(((S)-1-methylazetidin-2-yl)methoxy)benzamide] | – | < 500
Cc1ccc(OCCN(C)C)cc1C(=O)N[C@H](C)c1cc(-c2cnc3[nH]ncc3c2)nc2ccccc12 [Example 49, (R)—N-(1-(2-(1H-pyrazolo[3,4-b]pyridin-5-yl)quinolin-4-yl)-ethyl)-5-(2-(dimethylamino)-ethoxy)-2-methylbenzamide] | > 250 | –
CCn1ccc(-c2cc([C@@H](C)NC(=O)c3cc(OC[C@@H]4CCCN4C)ccc3C)c3ccccc3n2)n1 [Example 109, N—((R)-1-(2-(1-ethyl-1H-pyrazol-3-yl)quinolin-4-yl)ethyl)-2-methyl-5-(((S)-1-methylpyrrolidin-2-yl)methoxy)benzamide] | 27 ± 1.66 | –
